Assay results published in patent US20160152579A1, “OXAZOLIDINONE DERIVATIVES AS PPAR LIGANDS” (CONSEJO SUPERIOR DE INVESTIGACIONES CIENTÍFICAS (CSIC), priority 2013, published 2016).

Columns and labels:
[1] = biological target: T1, human PPAR-alpha receptor (Homo sapiens, UniProt Q07869); test: Cell transfection and luciferase reporter gene assay, PPAR-alpha activation in MCF-7 cells; format: cell-based; conditions: luciferase reporter, 16 h treatment
T1 construct: expressed in transfected cells; host or cells: MCF-7 human breast cancer cells, pSG5 expression vector
T1 sequence (Q07869 whole entry): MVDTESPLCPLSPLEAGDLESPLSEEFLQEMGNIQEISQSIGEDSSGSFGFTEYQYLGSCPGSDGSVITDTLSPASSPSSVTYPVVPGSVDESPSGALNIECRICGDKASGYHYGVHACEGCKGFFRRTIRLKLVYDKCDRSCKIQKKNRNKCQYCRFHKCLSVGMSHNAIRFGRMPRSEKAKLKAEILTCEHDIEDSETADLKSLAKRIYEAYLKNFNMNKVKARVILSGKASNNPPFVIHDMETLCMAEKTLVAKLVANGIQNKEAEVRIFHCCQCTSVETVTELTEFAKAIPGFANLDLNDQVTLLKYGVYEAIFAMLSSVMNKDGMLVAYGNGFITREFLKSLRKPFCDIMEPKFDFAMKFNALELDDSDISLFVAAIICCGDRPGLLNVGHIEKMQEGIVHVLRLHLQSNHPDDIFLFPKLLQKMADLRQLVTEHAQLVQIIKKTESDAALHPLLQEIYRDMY
T1 sequence (P19793 whole entry partner): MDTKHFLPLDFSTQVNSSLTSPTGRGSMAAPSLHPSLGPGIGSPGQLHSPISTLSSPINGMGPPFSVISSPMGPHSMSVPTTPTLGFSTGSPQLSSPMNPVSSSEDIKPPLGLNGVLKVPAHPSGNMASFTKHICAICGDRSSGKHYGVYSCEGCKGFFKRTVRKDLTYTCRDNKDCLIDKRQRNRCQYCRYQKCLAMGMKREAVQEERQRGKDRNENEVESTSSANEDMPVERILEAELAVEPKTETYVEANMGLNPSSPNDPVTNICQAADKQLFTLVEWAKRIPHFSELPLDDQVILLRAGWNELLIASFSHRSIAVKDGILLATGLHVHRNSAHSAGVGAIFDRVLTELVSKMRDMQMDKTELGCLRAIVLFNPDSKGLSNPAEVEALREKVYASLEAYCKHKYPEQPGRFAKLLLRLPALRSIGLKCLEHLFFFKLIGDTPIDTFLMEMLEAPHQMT
T1 sequence (Q15788 whole entry partner): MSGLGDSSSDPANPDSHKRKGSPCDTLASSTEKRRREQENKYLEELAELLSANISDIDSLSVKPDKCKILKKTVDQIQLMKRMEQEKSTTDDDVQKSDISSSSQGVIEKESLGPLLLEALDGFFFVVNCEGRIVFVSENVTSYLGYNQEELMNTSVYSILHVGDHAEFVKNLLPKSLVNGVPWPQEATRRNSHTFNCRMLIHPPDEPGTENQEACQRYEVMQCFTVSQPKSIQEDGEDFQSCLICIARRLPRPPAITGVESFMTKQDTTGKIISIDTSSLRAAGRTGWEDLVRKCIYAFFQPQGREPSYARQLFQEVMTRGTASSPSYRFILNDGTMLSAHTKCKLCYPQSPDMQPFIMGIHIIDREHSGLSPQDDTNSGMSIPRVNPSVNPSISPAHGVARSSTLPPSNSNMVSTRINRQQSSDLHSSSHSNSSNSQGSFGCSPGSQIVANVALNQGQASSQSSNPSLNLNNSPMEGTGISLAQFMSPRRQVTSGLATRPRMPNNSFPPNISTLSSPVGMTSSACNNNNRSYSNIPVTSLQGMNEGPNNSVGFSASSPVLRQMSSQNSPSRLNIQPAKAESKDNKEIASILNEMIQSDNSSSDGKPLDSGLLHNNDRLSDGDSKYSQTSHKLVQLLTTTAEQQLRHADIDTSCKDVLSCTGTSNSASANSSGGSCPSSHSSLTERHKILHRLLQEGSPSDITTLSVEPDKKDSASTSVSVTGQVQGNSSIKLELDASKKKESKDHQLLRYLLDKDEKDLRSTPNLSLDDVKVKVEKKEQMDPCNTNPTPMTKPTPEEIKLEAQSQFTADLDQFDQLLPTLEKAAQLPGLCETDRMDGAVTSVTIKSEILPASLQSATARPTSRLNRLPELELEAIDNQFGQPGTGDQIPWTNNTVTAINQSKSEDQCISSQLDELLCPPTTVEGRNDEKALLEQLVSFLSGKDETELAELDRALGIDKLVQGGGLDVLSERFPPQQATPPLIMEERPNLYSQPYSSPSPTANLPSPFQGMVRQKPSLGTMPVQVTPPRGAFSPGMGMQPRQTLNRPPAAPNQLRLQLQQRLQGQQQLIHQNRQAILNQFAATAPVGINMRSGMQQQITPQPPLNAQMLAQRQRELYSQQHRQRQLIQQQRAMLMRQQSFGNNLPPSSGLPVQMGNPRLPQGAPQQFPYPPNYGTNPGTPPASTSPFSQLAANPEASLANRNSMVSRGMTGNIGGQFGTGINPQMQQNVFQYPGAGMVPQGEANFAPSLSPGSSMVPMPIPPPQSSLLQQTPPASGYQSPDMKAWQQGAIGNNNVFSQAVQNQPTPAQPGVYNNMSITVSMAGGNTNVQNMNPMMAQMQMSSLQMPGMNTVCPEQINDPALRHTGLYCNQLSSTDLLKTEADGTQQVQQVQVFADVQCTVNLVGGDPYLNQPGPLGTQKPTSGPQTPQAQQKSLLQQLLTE
Protocol: (§1) The reporter gene assay is an in vitro method used to determine and quantify the existence of physical interactions between proteins, useful for confirming in this case the interaction of the transcription factors PPAR-alpha with co-activator SRC-1, and PPAR-gamma with PPRE in MCF-7 cells.
(§2) For the in vitro experiments, with cell culture all the compounds were dissolved and diluted in dimethylsulfoxide (DMSO) (Sigma Aldrich Spain).
(§3) DNA constructs: Eukaryotic pSG5 expression vector (4100 base pairs, Stratagene Co.) was used as the cDNA expression vehicle for human PPAR-alpha receptor and PPAR-gamma receptor. This construction was used for the in vivo overexpression of the protein in mammalian cells.
(§4) Four copies of the human CPTI gene DR1-type RE (sequence […]) (Ref: Tinahones F J, Moreno-Santos I, Vendrell J, Chacon M R, Garrido-Sanchez L, Garcia-Wasntes E, and Macias-Gonzalez M. Obesity 2012, 20: 488-497) were individually fused with the thymidine kinase promoter in the pGL-2 Basic vector (5598 base pairs, Promega Co.), which lacks a eukaryotic promoter and contains a firefly (Photinus pyralis) luciferase reporter gene. This vector is widely used in the quantitative analysis of factors capable of regulating gene expression in mammalian cells. This pGL-2 Basic vector also has an ampicillin resistance region (gene for β-lactamase). […]

[2] = biological target: T2, human PPAR-gamma receptor (Homo sapiens, UniProt P37231); test: Cell transfection and luciferase reporter gene assay, PPAR-gamma activation in MCF-7 cells; format: cell-based; conditions: luciferase reporter, 16 h treatment
T2 construct: expressed in transfected cells; host or cells: MCF-7 human breast cancer cells, pSG5 expression vector
T2 sequence (P37231 1-505): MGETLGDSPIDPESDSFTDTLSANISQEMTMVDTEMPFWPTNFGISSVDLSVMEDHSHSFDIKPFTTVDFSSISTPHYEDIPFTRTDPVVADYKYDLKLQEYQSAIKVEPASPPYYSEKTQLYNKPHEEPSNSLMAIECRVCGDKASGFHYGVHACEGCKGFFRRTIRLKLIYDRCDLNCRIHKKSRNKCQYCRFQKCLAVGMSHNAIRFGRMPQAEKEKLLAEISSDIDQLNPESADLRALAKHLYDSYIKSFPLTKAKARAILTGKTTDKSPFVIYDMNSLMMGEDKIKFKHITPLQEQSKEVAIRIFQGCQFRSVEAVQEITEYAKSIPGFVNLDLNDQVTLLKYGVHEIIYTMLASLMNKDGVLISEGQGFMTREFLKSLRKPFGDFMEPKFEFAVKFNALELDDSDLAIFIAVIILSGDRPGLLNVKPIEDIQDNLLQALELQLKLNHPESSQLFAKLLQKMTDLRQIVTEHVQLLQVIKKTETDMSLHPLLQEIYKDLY
Protocol: as §1, §2, §3, §4

Male Wistar albino rats = test: In vivo assay on food ingestion, acute treatment; set-up: species or system Rattus Norvegicus; conditions: for course of the effect on food ingestion over time (30-240 min) / reduction of food ingestion: rats fasted 24 h
Protocol: Male Wistar albino rats (Rattus Norvegicus) from Charles Rivers Laboratories España, S. A. (Barcelona, Spain), were used, having weights ranging between 300-350 g at the start of the experiments. The animals were caged individually, in controlled temperature (22° C.) and moisture (55%) conditions under a 12-hour light/dark cycle (light off from 8:00 AM to 8:00 PM). The rats had free access to food and water in their corresponding cages. All the training and experimental sessions were carried out after 8:00 PM hours.
All the drugs were prepared in fresh conditions in a solution consisting of 5% Tween-80 in sterile physiological serum. The different doses were prepared in different vials such that Tween-80 was added after weighing the necessary amount of compound. The compound, with its corresponding volume of surfactant, was sonicated and homogenized (with the aid of a magnetic stirrer) for 15-30 minutes. Then, the necessary volume of serum was added until completing the solution.
The compounds were administered intraperitoneally (i.p.) in an acute manner in an administration volume of 1 ml per kg of animal.
Before starting the ingestion experiments, the animals were habituated to being handled. For this purpose, 48-72 hours before each experimental session, the rats were placed in cages where the base material (sawdust) was removed, and small containers with food were placed in the cages for 4 hours. After this initial habituation phase, the animals were deprived of food for 24 hours, always having free access to water.
After said fasting period, the different treatment groups were established, and the base material was removed from the cages, weighing the animals and weighing the small containers with food (commercial laboratory feed). Additionally, the water container was weighed. 15 minutes after administering the compounds, the respective weighed food container was given to each animal, and it was again weighed at different times (30, 60, 120 and 240 minutes). In one case it was weighed 24 hours after being given.
Food consumption was represented as relative accumulated consumption (g of food per kg of animal). The water containers were also weighed at the end of the experiment.

| EC50 [1] [nM] | EC50 [2] [nM] | Compound | course of the effect on food ingestion over time (30-240 min) (Male Wistar albino rats; acute i.p. administration) | reduction of food ingestion (Male Wistar albino rats; effective dose 3.0 mg/kg i.p., FIG. 1) | effect on accumulated food ingestion 24 hours after administration (Male Wistar albino rats; 24 h after i.p. administration, FIG. 3) | dose dependence of the effect on food ingestion (Male Wistar albino rats; acute i.p. administration, FIG. 2) | reduction of food ingestion (Male Wistar albino rats; effective dose 1.0 mg/kg i.p., FIG. 2) |
| --- | --- | --- | --- | --- | --- | --- | --- |
| 670 ± 157 | 1290 | CC(C)(C)c1ccc(CNC(=O)c2ccc(NC(=O)c3cccc(CN4C(=O)OC[C@H]4Cc4ccccc4)c3)cc2)cc1 [Compound 1, (R)-3-((4-benzyl-2-oxooxazolidin-3-yl)methyl)-N-(4-((4-(tert-butyl)benzyl)carbamoyl)phenyl)benzamide] | effect disappearing 240 minutes after the administration | about 50% | – | – | – |
| 821 ± 139 | 1620 | CCCCCNC(=O)c1ccc(NC(=O)c2cccc(CN3C(=O)OC[C@H]3Cc3ccccc3)c2)cc1 [Compound 5, (R)-3-((4-benzyl-2-oxooxazolidin-3-yl)methyl)-N-(4-(pentylcarbamoyl)phenyl)benzamide] | effect maintained over time after 240 minutes | – | still has an effect 24 hours after administration | active in a dose-dependent manner | about 50% |
